The record followed here is patent publication US9745360B2 (Sanofi, priority 2012, dated 2017).

The structures appear in SMILES notation. Read-outs that look alike come from different tables or passages of the source. *1 amine or outer side, *2 acyl side, *3 side chain or, on linkers, in order; H or OH if unused. Where a SMILES comes first, the peptide text is derived from it. Side-chain parts run from the residue outwards. [ ]: non-standard residue; d: D form. The star is where a group is joined. γGlu = O=C(O)[C@H](CCC(=O)[*:2])N[*:1]; Stearoyl = CCCCCCCCCCCCCCCCCC(=O)*; Palmitoyl = CCCCCCCCCCCCCCCC(=O)*; d(αMeK) = C[C@@](N)(CCCCN)C(=O)O; αMeOrn = C[C@](N)(CCCN)C(=O)O; αMeK = C[C@](N)(CCCCN)C(=O)O; Api = NC1(C(=O)O)CCNCC1; Aib = CC(C)(N)C(=O)O

Data set [1] concerns the target T1, human GIP receptor (hGIP R) (Homo sapiens, UniProt P48546).
T1 construct: expressed in transfected cells
T1 sequence (P48546 22-466): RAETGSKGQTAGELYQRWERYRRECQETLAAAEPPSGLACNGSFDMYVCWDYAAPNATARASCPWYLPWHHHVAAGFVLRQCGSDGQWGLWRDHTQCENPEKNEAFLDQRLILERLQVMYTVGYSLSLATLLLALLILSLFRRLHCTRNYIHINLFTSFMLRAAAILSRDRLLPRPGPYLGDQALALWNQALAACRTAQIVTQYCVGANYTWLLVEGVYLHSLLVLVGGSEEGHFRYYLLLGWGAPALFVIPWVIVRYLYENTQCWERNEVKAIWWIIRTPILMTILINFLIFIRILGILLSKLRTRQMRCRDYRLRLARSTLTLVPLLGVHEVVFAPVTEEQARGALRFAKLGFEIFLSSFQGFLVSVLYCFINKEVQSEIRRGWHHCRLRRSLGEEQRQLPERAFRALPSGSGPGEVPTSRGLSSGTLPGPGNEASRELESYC
Description: cAMP response (HTRF) of HEK-293 cells stably expressing human GIP receptor. It is filed as cell-based. The following applies: Table 7; cAMP formation. Here is the method: (§1) cAMP content of cells was determined using a kit from Cisbio Corp. (cat. no. 62AM4PEC) based on HTRF (Homogenous Time Resolved Fluorescence). For preparation, cells were split into T175 culture flasks and grown overnight to near confluency in medium (DMEM/10% FBS). Medium was then removed and cells washed with PBS lacking calcium and magnesium, followed by proteinase treatment with accutase (Sigma-Aldrich cat. no. A6964). Detached cells were washed and resuspended in assay buffer (1×HBSS; 20 mM HEPES, 0.1% BSA, 2 mM IBMX) and cellular density determined. They were then diluted to 400000 cells/ml and 25 μl-aliquots dispensed into the wells of 96-well plates. For measurement, 25 μl of test compound in assay buffer was added to the wells, followed by incubation for 30 minutes at room temperature.

Data set [2] in a line: Solubility testing in buffer, HPLC-UV of supernatant. It is filed as physicochemical. The note with it: target concentration 1.0 mg/mL. Here is the method: (§2) Solubility and chemical stability of peptidic compounds were assessed as described in Methods.
Data set [3] can be described thus: Chemical stability in solution, 7 days at 25° C., % remaining peptide. The following applies: % remaining peptide after 7 days at 25° C. It is filed as physicochemical. Here is the method:
The chemical stability is expressed as “% remaining peptide”.
as §2

Data set [4] concerns the target T2, human GLP-1 receptor (hGLP-1 R) (Homo sapiens, UniProt P43220).
T2 construct: expressed in transfected cells
Description: cAMP response (HTRF) of HEK-293 cells stably expressing human GLP-1 receptor. Type of data set: cell-based. The following applies: Table 7; cAMP formation. Here is the method: as §1
In general terms: TR-FRET usually uses a lanthanide donor and a delayed reading to cut background.

T2 sequence (P43220 24-463): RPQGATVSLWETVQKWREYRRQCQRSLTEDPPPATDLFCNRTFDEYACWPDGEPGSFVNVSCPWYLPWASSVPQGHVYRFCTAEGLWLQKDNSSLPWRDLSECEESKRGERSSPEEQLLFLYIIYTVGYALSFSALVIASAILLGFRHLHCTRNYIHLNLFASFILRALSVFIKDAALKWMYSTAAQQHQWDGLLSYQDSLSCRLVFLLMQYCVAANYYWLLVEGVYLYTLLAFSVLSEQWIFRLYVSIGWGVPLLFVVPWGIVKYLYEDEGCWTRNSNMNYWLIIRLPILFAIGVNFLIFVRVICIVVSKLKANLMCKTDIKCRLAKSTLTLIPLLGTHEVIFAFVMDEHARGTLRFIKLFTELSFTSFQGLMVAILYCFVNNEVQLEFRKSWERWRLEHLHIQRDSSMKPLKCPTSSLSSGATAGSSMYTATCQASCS

As to `CCCCCCCCCCCCCCCC(=O)N[C@@H](CCC(=O)NCCCC[C@H](NC(=O)[C@H](CCC(N)=O)NC(=O)[C@@H](NC(=O)[C@H](CO)NC(=O)[C@H](CC(C)C)NC(=O)[C@H](CC(=O)O)NC(=O)[C@H](CO)NC(=O)[C@@H](NC(=O)[C@H](Cc1ccccc1)NC(=O)[C@@H](NC(=O)CNC(=O)[C@H](CCC(=O)O)NC(=O)C(C)(C)NC(=O)[C@@H](N)Cc1ccc(O)cc1)[C@@H](C)O)[C@@H](C)O)[C@@H](C)CC)C(=O)N[C@@H](CCC(=O)O)C(=O)N[C@@H](CCC(=O)O)C(=O)N[C@@H](CCCNC(=N)N)C(=O)N[C@@H](C)C(=O)N[C@@H](C)C(=O)NC1(C(=O)N[C@@H](CCC(=O)O)C(=O)N[C@@H](Cc2ccccc2)C(=O)N[C@H](C(=O)N[C@@H](CCC(=O)O)C(=O)N[C@@H](Cc2c[nH]c3ccccc23)C(=O)N[C@@H](CC(C)C)C(=O)N[C@@H](CCCCN)C(=O)N[C@@H](CC(N)=O)C(=O)N[C@H](C(=O)NCC(=O)N2CCC[C@H]2C(=O)N[C@@H](CO)C(=O)N[C@@H](CO)C(=O)NCC(=O)N[C@@H](C)C(=O)N2CCC[C@H]2C(=O)N2CCC[C@H]2C(=O)N2CCC[C@H]2C(=O)N[C@@H](CO)C(N)=O)[C@@H](C)O)[C@@H](C)CC)CCNCC1)C(=O)O` [SEQ ID NO: 8, Y-Aib-E-G-T-F-T-S-D-L-S-I-Q-K(γE-x53)-E-E-R-A-A-Pip-E-F-I-E-W-L-K-N-T-G-P-S-S-G-A-P-P-P-S-NH2] (H-Y[Aib]EGTFTSDLSIQK([γGlu-Palmitoyl])EERAA[Api]EFIEWLKNTGPSSGAPPPS-NH2), a half-maximal effect in data set [1] (EC50) was put at 16.3 pM. Further, the solubility (commonly the dissolved amount per volume that the medium holds) in data set [2] (pH 4.5, read-out: Solubility (pH 4.5)) is more than 1000 µg/mL; in data set [2] (pH 7.4, read-out: Solubility (pH 7.4)) it was more than 1000 µg/mL. In data set [3] (pH 4.5), the “Stability (pH 4.5)” value is 93.0%. The “Stability (pH 7.4)” value in data set [3] (pH 7.4) was 93.0%.

In the case of `CCCCCCCCCCCCCCCC(=O)N[C@@H](CCC(=O)NCCCC[C@H](NC(=O)[C@H](CCC(N)=O)NC(=O)[C@@H](NC(=O)[C@H](CO)NC(=O)[C@H](CC(C)C)NC(=O)[C@H](CC(=O)O)NC(=O)[C@H](CO)NC(=O)[C@@H](NC(=O)[C@H](Cc1ccccc1)NC(=O)[C@@H](NC(=O)CNC(=O)[C@H](CCC(=O)O)NC(=O)C(C)(C)NC(=O)[C@@H](N)Cc1ccc(O)cc1)[C@@H](C)O)[C@@H](C)O)[C@@H](C)CC)C(=O)N[C@@H](CCC(=O)O)C(=O)N[C@@H](CCC(=O)O)C(=O)N[C@@H](CCCNC(=N)N)C(=O)N[C@@H](C)C(=O)N[C@@H](C)C(=O)N[C@@](C)(CCCN)C(=O)N[C@@H](CCC(=O)O)C(=O)N[C@@H](Cc1ccccc1)C(=O)N[C@H](C(=O)N[C@@H](CCC(=O)O)C(=O)N[C@@H](Cc1c[nH]c2ccccc12)C(=O)N[C@@H](CC(C)C)C(=O)N[C@@H](CCCCN)C(=O)N[C@@H](CC(N)=O)C(=O)N[C@H](C(=O)NCC(=O)N1CCC[C@H]1C(=O)N[C@@H](CO)C(=O)N[C@@H](CO)C(=O)NCC(=O)N[C@@H](C)C(=O)N1CCC[C@H]1C(=O)N1CCC[C@H]1C(=O)N1CCC[C@H]1C(=O)N[C@@H](CO)C(N)=O)[C@@H](C)O)[C@@H](C)CC)C(=O)O` [SEQ ID NO: 10, Y-Aib-E-G-T-F-T-S-D-L-S-I-Q-K(γE-x53)-E-E-R-A-A-(S)MeOrn-E-F-I-E-W-L-K-N-T-G-P-S-S-G-A-P-P-P-S-NH2] (H-Y[Aib]EGTFTSDLSIQK([γGlu-Palmitoyl])EERAA[αMeOrn]EFIEWLKNTGPSSGAPPPS-NH2), the EC50 (usually the concentration at which the effect is half-maximal) came to 4.9 pM in data set [4] and 7.1 pM in data set [1].

In the case of `CCCCCCCCCCCCCCCCCC(=O)N[C@@H](CCC(=O)NCCCC[C@H](NC(=O)[C@H](CCC(N)=O)NC(=O)[C@@H](NC(=O)[C@H](CO)NC(=O)[C@H](CC(C)C)NC(=O)[C@H](CC(=O)O)NC(=O)[C@H](CO)NC(=O)[C@@H](NC(=O)[C@H](Cc1ccccc1)NC(=O)[C@@H](NC(=O)CNC(=O)[C@H](CCC(=O)O)NC(=O)C(C)(C)NC(=O)[C@@H](N)Cc1ccc(O)cc1)[C@@H](C)O)[C@@H](C)O)[C@@H](C)CC)C(=O)N[C@@H](CC(=O)O)C(=O)N[C@@H](CCC(=O)O)C(=O)N[C@@H](CCCNC(=N)N)C(=O)N[C@@H](C)C(=O)N[C@@H](C)C(=O)N[C@@](C)(CCCCN)C(=O)N[C@@H](CCC(=O)O)C(=O)N[C@@H](Cc1ccccc1)C(=O)N[C@H](C(=O)N[C@@H](CCC(=O)O)C(=O)N[C@@H](Cc1c[nH]c2ccccc12)C(=O)N[C@@H](CC(C)C)C(=O)N[C@@H](CCCCN)C(=O)N[C@@H](CC(N)=O)C(=O)N[C@H](C(=O)NCC(=O)N1CCC[C@H]1C(=O)N[C@@H](CO)C(=O)N[C@@H](CO)C(=O)NCC(=O)N[C@@H](C)C(=O)N1CCC[C@H]1C(=O)N1CCC[C@H]1C(=O)N1CCC[C@H]1C(=O)N[C@@H](CO)C(N)=O)[C@@H](C)O)[C@@H](C)CC)C(=O)O` [SEQ ID NO: 14, Y-Aib-E-G-T-F-T-S-D-L-S-I-Q-K(γE-x70)-D-E-R-A-A-(S)MeLys-E-F-I-E-W-L-K-N-T-G-P-S-S-G-A-P-P-P-S-NH2] (H-Y[Aib]EGTFTSDLSIQK([γGlu-Stearoyl])DERAA[αMeK]EFIEWLKNTGPSSGAPPPS-NH2), in data set [4], a half-maximal effect (EC50) was put at 7.2 pM.

Regarding `CCCCCCCCCCCCCCCCCC(=O)N[C@@H](CCC(=O)NCCCC[C@H](NC(=O)[C@H](CCC(N)=O)NC(=O)[C@@H](NC(=O)[C@H](CO)NC(=O)[C@H](CC(C)C)NC(=O)[C@H](CC(=O)O)NC(=O)[C@H](CO)NC(=O)[C@@H](NC(=O)[C@H](Cc1ccccc1)NC(=O)[C@@H](NC(=O)CNC(=O)[C@H](CCC(N)=O)NC(=O)C(C)(C)NC(=O)[C@@H](N)Cc1ccc(O)cc1)[C@@H](C)O)[C@@H](C)O)[C@@H](C)CC)C(=O)N[C@@H](CC(=O)O)C(=O)N[C@@H](CCC(=O)O)C(=O)N[C@@H](CCC(N)=O)C(=O)N[C@@H](CCCNC(=N)N)C(=O)N[C@@H](C)C(=O)N[C@](C)(CCCCN)C(=O)N[C@@H](CCC(=O)O)C(=O)N[C@@H](Cc1ccccc1)C(=O)N[C@H](C(=O)N[C@@H](CCC(=O)O)C(=O)N[C@@H](Cc1c[nH]c2ccccc12)C(=O)N[C@@H](CC(C)C)C(=O)N[C@@H](CCCCN)C(=O)N[C@@H](CO)C(=O)NCC(=O)NCC(=O)N1CCC[C@H]1C(=O)N[C@@H](CO)C(=O)N[C@@H](CO)C(=O)NCC(=O)N[C@@H](C)C(=O)N1CCC[C@H]1C(=O)N1CCC[C@H]1C(=O)N1CCC[C@H]1C(=O)N[C@@H](CO)C(N)=O)[C@@H](C)CC)C(=O)O` [SEQ ID NO: 13, Y-Aib-Q-G-T-F-T-S-D-L-S-I-Q-K(γE-x70)-D-E-Q-R-A-(R)MeLys-E-F-I-E-W-L-K-S-G-G-P-S-S-G-A-P-P-P-S-NH2] (H-Y[Aib]QGTFTSDLSIQK([γGlu-Stearoyl])DEQRA[d(αMeK)]EFIEWLKSGGPSSGAPPPS-NH2), the midpoint of the response in data set [4], the EC50, lay at 13.6 pM.
